Consider 7 compounds from patent US20070299084A1, “Indole Derivatives Useful for Treating Resistance to Antitumor Agents” (NIKEM RESE S.R.L., priority 2004, published 2007).

The subject of series [1] is A2780 cells (human ovarian carcinoma). The experiment in a line: Antiproliferative activity, 48 h treatment, ATPlite luminescence assay, A2780. Type of series: cell-based. The note with it: 48 h. treatment; read-out: Antiproliferative activity (IC50 ± S.D., μM) A2780. As for the experimental part:
(§1) 24 hours after seeding, an aliquot (10 μl) of the drug at the various concentrations is added (for each concentration there are 3 replicates). After 48 hours of treatment the antiproliferative effect is evaluated with a luminescence assay (Perkin Elmer Life Sciences ATPlite):
(§2) 50 μl of a lysis solution are added to each well followed by an equal volume of a solution containing luciferase and D-luciferin. The ATP present in all the metabolically active cells brings about the transformation reaction of D-luciferin, catalysed by luciferase, to produce a luminescent signal as described in the following scheme: ATP+D-luciferin+O2→Oxyluciferin+AMP+PPi+CO2+Light
(§3) The luminescence produced (expressed in counts per second, CPS) is measured by means of a microplate scintillation analyzer (Perkin Elmer Life Sciences Top Count).
(§4) Percentage inhibition of luminescence in the treated cells compared to the control is calculated; concentration-response curves are then analysed using Grafit v.5.0.

Series [2] has as its system LoVo cells (human colon carcinoma). The experiment in a line: Antiproliferative activity, 72 h treatment, SRB assay, LoVo. Type of series: cell-based. Conditions: 72 h. treatment; read-out: Antiproliferative activity (IC50 ± S.D., μM) LoVo. An excerpt: (§5) LoVo and LoVo/Dx (line obtained by prolonged exposure to doxorubicin and characterised by overerexpression of P-glycoprotein, which confers resistance to doxorubicin): maintained in HAM-F12 medium+10% FCS.
On the technique in general: In SRB staining, fixed cells bind dye roughly in proportion to their protein.

In series [3] the test system is SH-SY5Y cells (human neuroblastoma). As to the kind of experiment: Antiproliferative activity, 48 h treatment, ATPlite luminescence assay, SH-SY5Y. Type of series: cell-based. Conditions: 48 h. treatment; read-out: Antiproliferative activity (IC50 ± S.D., μM) SHSY-5Y. As for the experimental part:
(§6) SH-SY5Y and SK-N-BE(2): maintained in HAM-F12 medium+10% FCS.
as §1, §2, §3, §4

In series [4] the test system is HCT116 cells (human colon carcinoma). As to the kind of experiment: Antiproliferative activity, 72 h treatment, SRB assay, HCT116. Type of series: cell-based. The note with it: 72 h. treatment; read-out: Antiproliferative activity (IC50 ± S.D., μM) HCT116. As for the experimental part: HCT116 maintained in RPMI 1640 medium+10% FCS.
(§7) The cells (HT29 and HT29/Mit:. 40,000 cells/ml, LoVo, LoVo/Dx and HCT116: 50,000 cells/ml) are seeded in 100 μl of the respective culture media in 96-well plates. 24 hours after seeding, an aliquot (10 μl) of drug at the various concentrations is added. In the samples in which the effect of the combination of two compounds is to be tested the inhibitor is added immediately before the cytotoxic. For each dose or combination of doses/drugs the effect of the treatment is determined in 4-8 replicates.
(§8) After 72 hours of treatment the antiproliferative effect is evaluated using the sulforhodamine B (SRB) assay: the cells are fixed by adding 25 μl of 50% TCA to each well and left for 1 hour at 4° C. After washing them with water and allowing them to dry, 100 μl of 0.4% SRB in 1% acetic acid are added and left for 30 minutes at room temperature. After 4 washes in 1% acetic acid, they are left to dry, then the dye fixed by the proteins is dissolved under basic conditions with 100 μl 10 mM cold Tris and the solution is read using a spectrophotometer at 550 nm.
(§9) Percentage cell growth is calculated as the optical density of treated samples compared to the optical density of controls (untreated cells).
(§10) The Combination Index (C.I.) was determined according to Kern's method, 1988 (who continued from Drewinko B, 1976) (Kern D. H., Cancer Res. 48, 117-121, 1988; Drewinko B., Cancer Biochem. Biophys. 1, 187-195, 1976) by means of the following formula: […], where SFa and SFb are the fractions of cells surviving to treatment with compound a and b, respectively; SFab is the fraction surviving to the combination of compounds a and b.

In series [5] the test system is HT29 cells (human colon carcinoma). The experiment in a line: Antiproliferative activity, 72 h treatment, SRB assay, HT29. Type of series: cell-based. Conditions: 72 h. treatment, read-out: Antiproliferative activity (IC50 ± S.D., μM) HT-29.
Series [6] relates to SK-N-BE(2) cells (human neuroblastoma). As to the kind of experiment: Antiproliferative activity, 48 h treatment, ATPlite luminescence assay, SK-N-BE(2). Type of series: cell-based. The note with it: 48 h. treatment; read-out: Antiproliferative activity (IC50 ± S.D., μM) SK-N-BE(2). As for the experimental part: as §6, §1, §2, §3, §4
Background: Cellular ATP, detected with luciferase, serves as a proxy for viable cell number.

The subject of series [7] is LoVo/Dx cells (doxorubicin-resistant human colon carcinoma, P-glycoprotein overexpression). The experiment in a line: Antiproliferative activity, 72 h treatment, SRB assay, LoVo/Dx. The note with it: 72 h. treatment; read-out: Antiproliferative activity (IC50 ± S.D., μM) LoVo/Dx. It is filed as cell-based.
Source text: as §5

Series [8] has as its system HepG2 cells (human hepatic carcinoma). As to the kind of experiment: Antiproliferative activity, 48 h treatment, ATPlite luminescence assay, HepG2. It is filed as cell-based. As for the experimental part: HepG2: maintained in EMEM medium+10% FCS.
as §1, §2, §3, §4

Series [9] concerns HT29/Mit cells (mitoxantrone-resistant human colon carcinoma, BCRP overexpression). The experiment in a line: Antiproliferative activity, 72 h treatment, SRB assay, HT29/Mit. Conditions: Homo sapiens, HT-29, 72 h. As for the experimental part: HT29 and HT29/Mit (line obtained by prolonged exposure to mitoxantrone, and characterised by overerexpression of BCRP, which confers cross resistance to topotecan, irinotecan and to its metabolite SN38): maintained in McCoy 5A medium+10% FCS.
as §7, §8, §9, §10

For series [10], the system named is HT29/Mit human colon carcinoma xenografts. The experiment in a line: HT29/Mit human colon carcinoma xenografts, antitumor activity. It is filed as in vivo, athymic Swiss nude mice. The note with it: HT29/Mit xenograft, p.o.; topotecan 15 mg/Kg every 4 days for 3 administrations; compound of example 2 30 mg/kg; alone or combined. As for the experimental part: Female athymic Swiss nude mice (8-10 weeks old) (Charles River, Calco, Italy) were used for the experiments. The animals were maintained at constant temperature and humidity, and were allowed to eat and drink freely. The experimental protocol was approved by the Ethics Committee for Animal Experimentation of the Istituto Nazionale Tumori of Milan.
The antitumour effectiveness of the compounds of the invention under discussion was tested on athymic mouse models implanted with HT29 and/or HT29/Mit tumour cells: this latter variety is highly resistant to topotecan treatment. The tumour cells were implanted in vivo via subcutaneous injection of 10^7 cells taken from in vitro cultures. Randomized groups of five mice with bilateral subcutaneous tumours were used for the experiment.
Topotecan or other known antitumour agents (dissolved in distilled water or an appropriate solvent) and the compounds of the invention (dissolved in Cremophor EL:ethanol:saline solution in the proportions 5:5:90, or in an appropriate solvent) were administered orally from the third day, alone or in combination, in agreement with a treatment scheme selected in an appropriate manner depending on the type of compound to be studied.
The weight (or volume) of the tumour in treated mice compared to controls is represented graphically on the y-axis against time (x-axis).
Background: In xenograft studies the graft and the host belong to different species.

Series [11] relates to H460 spontaneous lung metastasis. As to the kind of experiment: H460 xenograft, spontaneous lung metastasis (antimetastatic activity). It is filed as in vivo, athymic Swiss nude mice. Conditions: topotecan 1 mg/kg, compound of example 2 30 mg/kg p.o. As for the experimental part: At day 63, tumor-bearing mice were sacrificed by cervical dislocation and their lungs were removed and weighed. Lung lobes were spliced between two glass slides and the metastatic nodules were macroscopically counted against a bright light (Corti C, J. Cancer Res. Clin. Oncol. 122, 154-60, 1996). […] Reading of metastasis was performed by two independent observers, unaware of the experimental group, with an interobserver reproducibility >95%. The metastatic nature of these areas was confirmed by histological analysis of digital images obtained by Image Analysis System software (Delta System, Rome, Italy).

For series [12], the system named is H460 primary tumor. As to the kind of experiment: H460 human non-small cell lung carcinoma xenograft, antitumor activity on the primary tumor. Type of series: in vivo, athymic Swiss nude mice. The note with it: H460 s.c., p.o. for 8 weeks, topotecan 1 mg/kg, compound of example 2 30 mg/kg. As for the experimental part: Female athymic Swiss nude mice (8-10 weeks old) (Charles River, Calco, Italy) were used for the experiments, as described above.
H460 cells were injected i.p. into nude mice, adapted to grow as ascitis and maintained in vivo by i.p. passages (5×10^6 cells/mouse in 0.5 ml PBS) (Pratesi G., Br. J. Cancer 63, 71-74, 1991). Briefly, cells were collected from the donor mice about 7 days after inoculum. After washing, cell number and viability were determined by trypan blue exclusion. Such procedure allowed to obtain a single cell suspension easily available for s.c or i.v. injection.
(§11) The effects of the compounds of the invention and/or topotecan on the growth of primary tumors and spontaneous lung metastasis were tested in mice inoculated s.c. in the right flank with H460 ascitic tumor cells (2×10^6/mouse). Each control or drug-treated group included 9-11 mice. The s.c. tumor growth was followed by biweekly measurements of tumor diameters with a Vernier caliper. Drug treatment was delivered orally, for 8 weeks, from day 1. Topotecan was delivered at the dose of 1 mg/kg and compounds of the invention were delivered at the dose of 30 mg/kg; in the combination group the compounds of the invention were delivered almost 1 hour after topotecan treatment. Control mice were solvent-treated orally in parallel with drug treatments.
(§12) Drug efficacy was assessed as mean percentage tumor weight inhibition in drug-treated versus control mice expressed as tumor weight inhibition % (TWI %)=100−(mean tumor weight treated/mean tumor weight control×100), evaluated during and after drug treatment. Drug tolerability was assessed in tumor-bearing mice as either lethal toxicity, i.e., any death in treated mice occurring before any control death, or percentage body weight loss (BWL %)=100−(body weight on day x/body weight on day 1×100), where x represents a day after or during the treatment period.

The nature of series [13]: Drug tolerability in H460 tumor-bearing mice (lethal toxicity). The note with it: topotecan 1 mg/kg, compound of example 2 30 mg/kg p.o., 8 weeks. As for the experimental part:
as §11, §12

The mark [14] stands for this setting: read-out: Antiproliferative activity (IC50 ± S.D., μM) HT-29/Mit.
Where [15] appears, read: Homo sapiens, HepG2, read-out: Antiproliferative activity (IC50 ± S.D., μM) HepG2.

Structures are written as SMILES. Where two headings read alike, the source gives them in different places. Marks after values point to notes of the source that are not given here.

With `N.N.[Cl][Pt][Cl]` [Cisplatin, reference compound], the IC50 in series [1] was determined as 8.1 ± 2.1 µM; in [2], 0.7 µM; in [3] it was 7.3 ± 3.3 µM; in series [4] it was 5.4 µM; in series [5] it was 6.8 µM; in series [6], 10.1 ± 3.5 µM. Further, the IC50 is 0.8 µM in [7] and over 25 µM in series [8] (read-out: Antiproliferative activity (IC50 ± S.D., μM) HepG2).
For `CO/C(=C\C=C\c1cc2cc(Cl)c(Cl)cc2[nH]1)C(=O)NC1CC(C)(C)N(C)C(C)(C)C1` [Example 1], the IC50 in [5] (Homo sapiens, HT-29) came out at 3.3 ± 0.4 µM; in series [9] (setting [14]), 1 µM; in series [8] (setting [15]), 1.1 ± 0.1 µM.
On the same counts, the results for `CCOc1cc(C(=O)NC2CC(C)(C)NC(C)(C)C2)ccc1-c1nc2cc(Cl)c(Cl)cc2[nH]1` [Example 3] are 0.56 ± 0.26 µM, 0.27 µM and 0.71 ± 0.01 µM.
In the case of `CCOc1cc(C(=O)NC2CCNCC2)ccc1-c1cc2cc(Cl)c(Cl)cc2[nH]1` [Example 4], the IC50 in [5] (Homo sapiens, HT-29) is 4.7 µM; in series [9] (setting [14]), 3.6 µM.
On the same counts, the results for `CCOc1cc(C(=O)NC2CCN(C)CC2)ccc1-c1cc2cc(Cl)c(Cl)cc2[nH]1` [Example 5] are 3.8 µM and 2.3 µM.
As for `COc1cc(C(=O)N(C)C2CC(C)(C)NC(C)(C)C2)ccc1-c1cc2cc(Cl)c(Cl)cc2[nH]1` [Example 6], the IC50 amounted to 4.7 µM in series [5] (Homo sapiens, HT-29); 3.3 µM in series [9] (setting [14]); 0.92 ± 0.01 µM in series [8] (setting [15]).
In the case of `CC[C@@]1(O)C(=O)OCc2c1cc1n(c2=O)Cc2cc3c(CN(C)C)c(O)ccc3nc2-1` [Topotecan, reference compound], in [10], the “Inhibition of tumour growth” value is 30-40%. Also, the “Lung No. Metastasis (range)” value is reported as 11 (4-23) in series [11] (day 63) and “reduced” in series [11] (day 63, listed as topotecan). Further, the “Lung Weight (mg) (mean ± S.D.)” value in [11] (day 63) turned out to be 169 ± 16 mg. Further, the “Lung metastasis Inhibition %” value in series [11] (inhibition of number of metastasis vs controls) turned out to be 58%. The IC50 in series [5] (Homo sapiens, HT-29) is 0.07 ± 0.01 µM; in series [9] (read-out: IC50 for topotecan alone (FIG. 1 co-treatment experiment)), over 20 µM. Moreover, in [12], the “LCK (Log10 Cell Kill)” value worked out at 0.5. Further, the “Max TWI (day 56) (Maximal Tumor weight inhibition achieved)” value was 57* % in series [12] and 57% in series [12] (listed as topotecan). The “Tox/Tot (any death in treated mice occurring before any control mice)” value in series [13] is on record as 0/10.
